The experiment addresses T1, His-tagged recombinant human TrkA (Homo sapiens, UniProt P04629).
T1 construct: 6HIS tagged cytoplasmic domain from Invitrogen, Catalog No. PV3144; purchased Invitrogen PV3144
Put plainly: TrkA LanthaScreen Eu Kinase Binding Assay. As to conditions: averaged IC50 values; read-out: TrkA enzyme IC50. As for the experimental part: TrkA binding activity was determined in a TrkA LanthaScreen™ Eu Kinase Binding Assay. 5 nM His-tagged recombinant human TrkA (6HIS tagged cytoplasmic domain from Invitrogen, Catalog No. PV3144) was incubated with 4 nM Alexa-Fluor® Tracer 236 (Invitrogen Cat. No. PV5592), 2 nM biotinylated anti-His (Invitrogen Cat. No. PV6090), and 2 nM europium-labeled Streptavidin (Invitrogen Cat. No. PV5899), in buffer (25 mM MOPS, pH 7.5, 5 mM MgCl2, 0.005% Triton X-100). Three fold serial dilutions of compounds of the invention in DMSO were added to a final percentage of 2% DMSO. After 60-minute incubation at 22° C., the reaction was measured using the EnVision mutlimode plate reader (PerkinElmer) via TR-FRET dual wavelength detection at […]. The percent of control was calculated using a ratiometric emission factor. The IC50 values were determined by fitting a four parameter model to the percent of control data.
Table A provides averaged IC50 values for compounds of the invention when tested in the assay of Example A, where A represents an averaged IC50 value <100 nM; and B represents an averaged IC50 value from 100 to 1,000 nM.

Each structure is given as a SMILES string. Where only a bound is given, the exact number is not on record here.

The text below walks through data of patent publication US9790178B2, “Pyrrolidinyl urea, thiourea, guanidine and cyanoguanidine compounds as TrkA kinase inhibitors” (Array BioPharma Inc., priority 2012, dated 2017).

T1 sequence (P04629 440-796 limits assumed): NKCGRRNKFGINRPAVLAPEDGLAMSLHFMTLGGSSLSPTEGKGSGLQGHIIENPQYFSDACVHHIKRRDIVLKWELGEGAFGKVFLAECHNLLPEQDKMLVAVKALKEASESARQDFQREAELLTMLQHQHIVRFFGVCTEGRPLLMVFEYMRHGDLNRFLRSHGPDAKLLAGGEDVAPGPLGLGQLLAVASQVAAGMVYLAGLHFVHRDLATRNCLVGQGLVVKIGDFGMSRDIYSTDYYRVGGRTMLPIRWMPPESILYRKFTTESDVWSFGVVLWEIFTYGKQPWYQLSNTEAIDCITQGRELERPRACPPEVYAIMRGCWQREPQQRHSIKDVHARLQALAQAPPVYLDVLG

With `COCCN1C[C@@H](NC(=O)Nc2cccc3cn[nH]c23)[C@H](c2ccccc2)C1` (relative stereo) [Example 1, 1-(1H-indazol-7-yl)-3-(trans-1-(2-methoxyethyl)-4-phenylpyrrolidin-3-yl)urea di-trifluoroacetate], the IC50 lay within 100 to 1000 nM.
The value for `COCCN1C[C@@H](NC(=O)Nc2ccc(C)c3cn[nH]c23)[C@H](c2ccccc2)C1` (relative stereo) [Example 2, 1-(trans-1-(2-methoxyethyl)-4-phenylpyrrolidin-3-yl)-3-(4-methyl-1H-indazol-7-yl)urea di-trifluoroacetate] was 100 to 1000 nM; that for `COCCN1C[C@@H](NC(=O)Nc2cccc3c(Br)n[nH]c23)[C@H](c2ccccc2)C1` (relative stereo) [Example 3, 1-(3-bromo-1H-indazol-7-yl)-3-(trans-1-(2-methoxyethyl)-4-phenylpyrrolidin-3-yl)urea] was less than 100 nM.
The value for `COCCN1C[C@@H](NC(=O)Nc2cccc3c(-c4ccccc4)n[nH]c23)[C@H](c2ccccc2)C1` (relative stereo) [Example 4, 1-(trans-1-(2-methoxyethyl)-4-phenylpyrrolidin-3-yl)-3-(3-phenyl-1H-indazol-7-yl)urea] was less than 100 nM; that for `COCCN1C[C@@H](NC(=O)Nc2c(-c3ccccc3)nc3sc(C)cn23)[C@H](c2ccccc2)C1` (relative stereo) [Example 5, 1-((trans)-1-(2-methoxyethyl)-4-phenylpyrrolidin-3-yl)-3-(2-methyl-6-phenylimidazo[2,1-b]thiazol-5-yl)urea] was 100 to 1000 nM.
The value for `COCCN1C[C@@H](NC(=O)Nc2c(-c3ccccc3)nc3ccccn23)[C@H](c2ccccc2)C1` (relative stereo) [Example 6, 1-((trans)-1-(2-methoxyethyl)-4-phenylpyrrolidin-3-yl)-3-(2-phenylimidazo[1,2-a]pyridin-3-yl)urea] was less than 100 nM; that for `COCCN1C[C@@H](NC(=O)Nc2c(-c3ccccc3)nc3ncccn23)[C@H](c2ccccc2)C1` (relative stereo) [Example 7, 1-((trans)-1-(2-methoxyethyl)-4-phenylpyrrolidin-3-yl)-3-(2-phenylimidazo[1,2-a]pyrimidin-3-yl)urea] was less than 100 nM.
In the case of `COCCN1C[C@@H](NC(=O)Nc2c(-c3ccccc3)nc3scnn23)[C@H](c2ccccc2)C1` (relative stereo) [Example 8, 1-((trans)-1-(2-methoxyethyl)-4-phenylpyrrolidin-3-yl)-3-(6-phenylimidazo[2,1-b][1,3,4]thiadiazol-5-yl)urea], the IC50 was less than 100 nM.
The result for `COCCN1C[C@@H](NC(=O)Nc2c(-c3ccccc3)nc3sccn23)[C@H](c2ccccc2)C1` (relative stereo) [Example 9, 1-((trans)-1-(2-methoxyethyl)-4-phenylpyrrolidin-3-yl)-3-(6-phenylimidazo[2,1-b]thiazol-5-yl)urea] reads less than 100 nM.
The result for `COCCN1C[C@@H](NC(=O)Nc2c(-c3ccccc3)nc3cnccn23)[C@H](c2ccccc2)C1` (relative stereo) [Example 10, 1-((trans)-1-(2-methoxyethyl)-4-phenylpyrrolidin-3-yl)-3-(2-phenylimidazo[1,2-a]pyrazin-3-yl)urea] reads less than 100 nM; that for `COCCN1C[C@@H](NC(=O)Nc2c(-c3ccccc3)nc3c(C)cccn23)[C@H](c2ccccc2)C1` (relative stereo) [Example 11, 1-((trans)-1-(2-methoxyethyl)-4-phenylpyrrolidin-3-yl)-3-(8-methyl-2-phenylimidazo[1,2-a]pyridin-3-yl)urea], less than 100 nM.
The value for `COCCN1C[C@@H](NC(=O)Nc2c(-c3ccccc3)nc3cc(C)ccn23)[C@H](c2ccccc2)C1` (relative stereo) [Example 12, 1-((trans)-1-(2-methoxyethyl)-4-phenylpyrrolidin-3-yl)-3-(7-methyl-2-phenylimidazo[1,2-a]pyridin-3-yl)urea] was less than 100 nM; that for `COCCN1C[C@@H](NC(=O)Nc2c(-c3ccccc3)nc3ccc(C)cn23)[C@H](c2ccccc2)C1` (relative stereo) [Example 13, 1-((trans)-1-(2-methoxyethyl)-4-phenylpyrrolidin-3-yl)-3-(6-methyl-2-phenylimidazo[1,2-a]pyridin-3-yl)urea] was 100 to 1000 nM; that for `COCCN1C[C@@H](NC(=O)Nc2c(-c3ccccc3)nc3c(Cl)cccn23)[C@H](c2ccccc2)C1` (relative stereo) [Example 14, 1-(8-chloro-2-phenylimidazo[1,2-a]pyridin-3-yl)-3-((trans)-1-(2-methoxyethyl)-4-phenylpyrrolidin-3-yl)urea] was less than 100 nM.
As to `COCCN1C[C@@H](NC(=O)Nc2c(-c3ccccc3)nc3c(C(F)(F)F)cccn23)[C@H](c2ccccc2)C1` (relative stereo) [Example 16, 1-((trans)-1-(2-methoxyethyl)-4-phenylpyrrolidin-3-yl)-3-(2-phenyl-8-(trifluoromethyl)imidazo [1,2-a]pyridin-3-yl)urea], the 50% inhibitory concentration (IC50) is less than 100 nM.
The result for `COCCN1C[C@@H](NC(=O)Nc2c(-c3ccccc3)nc3ccc(F)cn23)[C@H](c2ccccc2)C1` (relative stereo) [Example 17, 1-(6-fluoro-2-phenylimidazo[1,2-a]pyridin-3-yl)-3-((trans)-1-(2-methoxyethyl)-4-phenylpyrrolidin-3-yl)urea] reads less than 100 nM.
The value for `COCCN1C[C@@H](NC(=O)Nc2c(-c3ccccc3)[nH]c3ccccc23)[C@H](c2ccccc2)C1` (relative stereo) [Example 26, 1-((trans)-1-(2-methoxyethyl)-4-phenylpyrrolidin-3-yl)-3-(2-phenyl-1H-indol-3-yl)urea] was less than 100 nM.
The result for `COCCN1C[C@@H](NC(=O)Nc2c(-c3ccccc3)nc3c(C)cccn23)[C@H](c2ccccc2)C1` [Example 15, 1-((3S,4R)-1-(2-methoxyethyl)-4-phenylpyrrolidin-3-yl)-3-(8-methyl-2-phenylimidazo[1,2-a]pyridin-3-yl)urea] reads less than 100 nM.
Consider `COCCN1C[C@@H](NC(=O)Nc2c(-c3ccccc3)nc3c(F)cccn23)[C@H](c2ccccc2)C1` [Example 18, 1-(8-fluoro-2-phenylimidazo[1,2-a]pyridin-3-yl)-3-((3S,4R)-1-(2-methoxyethyl)-4-phenylpyrrolidin-3-yl)urea], for which the half-inhibitory concentration (IC50) is less than 100 nM.
The value for `COCCN1C[C@@H](NC(=O)Nc2c(-c3ccccc3)nc3c(C)nccn23)[C@H](c2ccccc2)C1` [Example 19, 1-((3S,4R)-1-(2-methoxyethyl)-4-phenylpyrrolidin-3-yl)-3-(8-methyl-2-phenylimidazo[1,2-a]pyrazin-3-yl)urea] was less than 100 nM; that for `COCCN1C[C@@H](NC(=O)Nc2c(-c3ccccc3)nc3c(=O)[nH]ccn23)[C@H](c2ccc(F)c(F)c2)C1` [Example 21, 1-((3S,4R)-4-(3,4-difluorophenyl)-1-(2-methoxyethyl)pyrrolidin-3-yl)-3-(8-oxo-2-phenyl-7,8-dihydroimidazo[1,2-a]pyrazin-3-yl)urea] was less than 100 nM.
The result for `COCCN1C[C@@H](NC(=O)Nc2c(-c3ccccc3)nc3c(OC)nccn23)[C@H](c2ccc(F)c(F)c2)C1` [Example 22, 1-((3S,4R)-4-(3,4-difluorophenyl)-1-(2-methoxyethyl)pyrrolidin-3-yl)-3-(8-methoxy-2-phenylimidazo[1,2-a]pyrazin-3-yl)urea] reads less than 100 nM; that for `COCCN1C[C@@H](NC(=O)Nc2c(-c3ccccc3)nc3c(C)nccn23)[C@H](c2cc(F)cc(F)c2)C1` [Example 23, 1-((3S,4R)-4-(3,5-difluorophenyl)-1-(2-methoxyethyl)pyrrolidin-3-yl)-3-(8-methyl-2-phenylimidazo[1,2-a]pyrazin-3-yl)urea], less than 100 nM; that for `COCCN1C[C@@H](NC(=O)Nc2c(-c3ccccc3)nc3c(=O)n(C)ccn23)[C@H](c2ccc(F)c(F)c2)C1` [Example 24, 1-((3S,4R)-4-(3,4-difluorophenyl)-1-(2-methoxyethyl)pyrrolidin-3-yl)-3-(7-methyl-8-oxo-2-phenyl-7,8-dihydroimidazo[1,2-a]pyrazin-3-yl)urea], less than 100 nM.
The value for `CCn1ccn2c(NC(=O)N[C@@H]3CN(CCOC)C[C@H]3c3ccc(F)c(F)c3)c(-c3ccccc3)nc2c1=O` [Example 25, 1-((3S,4R)-4-(3,4-difluorophenyl)-1-(2-methoxyethyl)pyrrolidin-3-yl)-3-(7-ethyl-8-oxo-2-phenyl-7,8-dihydroimidazo[1,2-a]pyrazin-3-yl)urea] was less than 100 nM; that for `COCCN1C[C@@H](NC(=O)Nc2c(-c3ccccc3)nc3c(C)nccn23)[C@H](c2ccc(F)cc2)C1` [Example 27, 1-((3S,4R)-4-(4-fluorophenyl)-1-(2-methoxyethyl)pyrrolidin-3-yl)-3-(8-methyl-2-phenylimidazo[1,2-a]pyrazin-3-yl)urea] was less than 100 nM.
For `COCCN1C[C@@H](NC(=O)NC2=C(c3ccccc3)C(=O)c3ccccc32)[C@H](c2ccc(F)c(F)c2)C1` [Example 28, 1-((3S,4R)-4-(3,4-difluorophenyl)-1-(2-methoxyethyl)pyrrolidin-3-yl)-3-(1-oxo-2-phenyl-1H-inden-3-yl)urea], the IC50 lay in the range of 100 to 1000 nM.

Broadly, the IC50 is the concentration needed to halve the response being measured.
